Publication PMC9743092, “Membrane-Active Cyclic Amphiphilic Peptides: Broad-Spectrum Antibacterial Activity Alone and in Combination with Antibiotics” (Journal of Medicinal Chemistry, 2022)
In brackets after ≈: the same amount, converted by molar mass. Where two headings read alike, the source gives them in different places. Peptide text beside a SMILES is read from it.

Tests used:
[1] = system: MRSA (ATCC BAA-1556); assay: microbe, parasite or virus in culture; settings: Staphylococcus aureus
[2] = system: E. coli (ATCC 25922); assay: microbe, parasite or virus in culture; settings: Escherichia coli
[3] = system: S. aureus (ATCC BAA-1556); assay: Synergistic checkerboard assay; type: cell-based; settings: Staphylococcus aureus
Method: (§1) This study aimed to compare the influence of synergistic combinations on the antibacterial efficacy against the individual peptide or antibiotic. The comparison is represented by the fractional inhibitory concentration index (FICI) value, which classifies the combined impact of the two tested compounds. Selected antibiotics were tested as 11 dose points of two-fold serial dilutions across the assay plate in combination with seven points of two-fold serial dilution of the peptides down the assay plate. Two-fold serial dilutions for antibiotics and peptides were performed individually to determine the MIC value for each tested compound.
(§2) The concentrations of the peptide started from its respective MICs and were then subjected to two-fold serial dilutions (a total of 7 points). […] Antibiotics were tested as 11 points, two-fold serial dilutions across the assay plate (from 1 to 11 columns) in combination with a seven (A–G)-point and two-fold serial dilution of the peptides down the assay plate. […] In column 12 (A–G) down the assay plate, a two-fold serial dilution of the peptide alone was performed.
(§3) The following equation was applied to calculate the FICI: (A)/MICA + (B)/MICB = FICA + FICB = FICI, where (A) and (B) are the MIC of (antibiotic + [peptide]) in combination (in a single well) and MICA and MICB are the MIC of each compound individually. Based on the calculated FICI value, the interaction between combinations was categorized into four prospects synergy, partial synergy, additive or indifference, and antagonism. […] All experiments were performed in triplicate.

[4] = system: P. aeruginosa (ATCC 27883); assay: microbe, parasite or virus in culture; settings: Pseudomonas aeruginosa, ATCC27883, read-out: MIC P. aeruginosa (ATCC 27883)
[5] = system: K. pneumoniae (ATCC BAA-1705); assay: Synergistic checkerboard assay; settings: Klebsiella pneumoniae, ATCCBAA1705, read-out: MIC antibiotic alone
[6] = system: P. aeruginosa (ATCC 27883); assay: Synergistic checkerboard assay; type: cell-based; settings: Pseudomonas aeruginosa
Method: as §1, §2, §3

[7] = system: E. coli (ATCC 25922); assay: Synergistic checkerboard assay; type: cell-based; settings: Escherichia coli
Method: as §1, §2, §3

[8] = system: K. pneumoniae (ATCC BAA-1705); assay: microbe, parasite or virus in culture; settings: Klebsiella pneumoniae
[9] = system: K. pneumoniae (ATCC BAA-1705); settings: 24 h, ≥99.9% kill
[10] = system: MRSA (ATCC BAA-1556); set-up: MIC MRSA: unit not given beside the values; settings: for MIC MRSA: supplementary csv, unit not given
[11] = system: P. aeruginosa (ATCC 27883); settings: 24 h, ≥99.9% kill
[12] = system: K. pneumoniae (ATCC BAA-1705); settings: for MIC K. pneumoniae: supplementary csv, unit not given
[13] = system: human red blood cells (hRBCs); settings: red cells of human, 2 h
Method: The hemolytic activity of all the cyclic peptides was determined using human red blood cells (hRBC) purchased from BioIVT, USA. […] Peptide-induced hemolysis was tested in triplicate by mixing 75 μL of the peptide solution in PBS (two-fold serial dilution) with 75 μL of a 4% (v/v) hRBC suspension in phosphate-buffered saline. The plates were incubated for 2 h at 37 °C without agitation and centrifuged at 1000g for 10 min. Aliquots (100 μL) of the supernatant were transferred to 96-well plates, where hemoglobin release was measured spectrophotometrically at 567 nm. Percent hemolysis was calculated by the following formula: [drawing 1] where A represents the absorbance of the peptide sample at 567 nm and A0 and At represent zero percent and 100% hemolysis determined in phosphate-buffered saline and 1% Triton X-100, respectively.

[14] = system: E. coli (ATCC 25922); settings: 24 h, ≥99.9% kill
[15] = system: P. aeruginosa (ATCC 27883); set-up: MIC P. aeruginosa: unit not given beside the values; settings: supplementary csv, unit not given
[16] = system: E. coli (ATCC 25922); set-up: MIC E. coli: unit not given beside the values; settings: supplementary csv, unit not given
[17] = read-out: MIC S. aureus (ATCC BAA-1556)
[18] = ATCC25922, read-out: MIC E. coli (ATCC 25922)
[19] = ATCCBAA1705, read-out: MIC K. pneumoniae (ATCC BAA-1705)

## CN[C@H](CC(C)C)C(=O)N[C@H]1C(=O)N[C@@H](CC(N)=O)C(=O)N[C@H]2C(=O)N[C@H]3C(=O)N[C@H](C(=O)N[C@H](C(=O)O)c4cc(O)cc(O)c4-c4cc3ccc4O)[C@H](O)c3ccc(c(Cl)c3)Oc3cc2cc(c3O[C@@H]2O[C@H](CO)[C@@H](O)[C@H](O)[C@H]2O[C@H]2C[C@](C)(N)[C@H](O)[C@H](C)O2)Oc2ccc(cc2Cl)[C@H]1O [vancomycin]
[1]; read-out: MIC MRSA (ATCC BAA-1556)
  MIC: 1 µg/mL (≈ 0.69 µM)
[1]; [17]
  MIC: 1 µg/mL (≈ 0.69 µM)
[2]; ATCC25922, 24 h, read-out: MIC E. coli (ATCC 25922)
  MIC: 256 µg/mL (≈ 177 µM)
[2]; [18]
  MIC: 256 µg/mL (≈ 177 µM)
[3]; ATCCBAA1556, read-out: MIC antibiotic alone
  MIC: 1 µg/mL
[4]
  MIC: 256 µg/mL (≈ 177 µM)
[5]
  MIC: 512 µg/mL
[6]; ATCC27883, read-out: MIC antibiotic alone
  MIC: 256 µg/mL
[7]; ATCC25922, read-out: MIC antibiotic alone
  MIC: 256 µg/mL
[8]; ATCCBAA1705, 24 h, read-out: MIC K. pneumoniae (ATCC BAA-1705)
  MIC: 512 µg/mL (≈ 353 µM)
[8]; [19]
  MIC: 512 µg/mL (≈ 353 µM)

## N=C(N)NCCC[C@@H]1NC(=O)[C@H](CCCNC(=N)N)NC(=O)[C@H](CCCNC(=N)N)NC(=O)[C@H](Cc2c[nH]c3ccccc23)NC(=O)[C@H](Cc2c[nH]c3ccccc23)NC(=O)[C@H](Cc2c[nH]c3ccccc23)NC(=O)[C@H](Cc2c[nH]c3ccccc23)NC(=O)[C@H](Cc2c[nH]c3ccccc23)NC(=O)[C@H](CCCNC(=N)N)NC(=O)[C@H](CCCNC(=N)N)NC1=O [5b, [R5W5]]
[9]
  MBC K. pneumoniae (ATCC BAA-1705): 32 µg/mL (≈ 18.7 µM)
[10]
  MIC MRSA: 4
[11]
  MBC P. aeruginosa (ATCC 27883): 32 µg/mL (≈ 18.7 µM)
[12]
  MIC K. pneumoniae: 32
[13]
  HC50: 230 µg/mL
[14]
  MBC E. coli (ATCC 25922): 64 µg/mL (≈ 37.4 µM)
[15]
  MIC P. aeruginosa: 32
[16]
  MIC E. coli: 16

## CN(C)[C@@H]1C(O)=C(C(N)=O)C(=O)[C@@]2(O)C(O)=C3C(=O)c4c(O)cccc4[C@@](C)(O)[C@H]3C[C@@H]12 [tetracycline]
[1]; [17]
  MIC: 0.25 µg/mL (≈ 0.563 µM)
[2]; [18]
  MIC: 8 µg/mL (≈ 18 µM)
[3]; ATCCBAA1556, checkerboard, read-out: MIC antibiotic alone
  MIC: 0.25 µg/mL
[4]
  MIC: 32 µg/mL (≈ 72 µM)
[5]
  MIC: […]
[6]; ATCC27883, checkerboard, read-out: MIC antibiotic alone
  MIC: 32 µg/mL
[7]; ATCC25922, checkerboard, read-out: MIC antibiotic alone
  MIC: 8 µg/mL
[8]; [19]
  MIC: […]

## N=C(N)NCCC[C@@H]1NC(=O)[C@H](CCCNC(=N)N)NC(=O)[C@H](CCCNC(=N)N)NC(=O)[C@H](CCCNC(=N)N)NC(=O)[C@H](Cc2c[nH]c3ccccc23)NC(=O)[C@H](Cc2c[nH]c3ccccc23)NC(=O)[C@H](Cc2c[nH]c3ccccc23)NC(=O)[C@H](Cc2c[nH]c3ccccc23)NC(=O)[C@H](Cc2c[nH]c3ccccc23)NC(=O)[C@H](CCCNC(=N)N)NC(=O)[C@H](CCCNC(=N)N)NC1=O [6b, [R6W5]] (cyclo(RRRRRRWWWWW))
[9]
  MBC K. pneumoniae (ATCC BAA-1705): 64 µg/mL (≈ 34.3 µM)
[10]
  MIC MRSA: 8
[11]
  MBC P. aeruginosa (ATCC 27883): 32 µg/mL (≈ 17.1 µM)
[12]
  MIC K. pneumoniae: 64
[13]
  HC50: 255 µg/mL
[14]
  MBC E. coli (ATCC 25922): 128 µg/mL (≈ 68.5 µM)
[15]
  MIC P. aeruginosa: 16
[16]
  MIC E. coli: 32

## N=C(N)NCCC[C@@H]1NC(=O)[C@H](CCCNC(=N)N)NC(=O)[C@H](CCCNC(=N)N)NC(=O)[C@H](CCCNC(=N)N)NC(=O)[C@H](Cc2c[nH]c3ccccc23)NC(=O)[C@H](Cc2c[nH]c3ccccc23)NC(=O)[C@H](Cc2c[nH]c3ccccc23)NC(=O)[C@H](Cc2c[nH]c3ccccc23)NC(=O)[C@H](CCCNC(=N)N)NC(=O)[C@H](CCCNC(=N)N)NC1=O [6a, [R6W4]] (cyclo(RRRRRRWWWW))
[9]
  MBC K. pneumoniae (ATCC BAA-1705): 128 µg/mL (≈ 76.1 µM)
[10]; CaCl2 (2 mM)
  MIC MRSA (ATCC BAA-1556): 8 µg/mL (≈ 4.76 µM)
[10]; FBS (25%)
  MIC MRSA (ATCC BAA-1556): 8 µg/mL (≈ 4.76 µM)
[10]; FeCl3 (8 µM)
  MIC MRSA (ATCC BAA-1556): 8 µg/mL (≈ 4.76 µM)
[10]; KCl ([…])
  MIC MRSA (ATCC BAA-1556): 8 µg/mL (≈ 4.76 µM)
[10]; MH broth media, absence of salts and serum
  MIC MRSA (ATCC BAA-1556): 8 µg/mL
[10]; MgCl2 (1 mM)
  MIC MRSA (ATCC BAA-1556): 4 µg/mL (≈ 2.38 µM)
[10]; NH4Cl (6 mM)
  MIC MRSA (ATCC BAA-1556): 4 µg/mL (≈ 2.38 µM)
[10]; NaCl (150 mM)
  MIC MRSA (ATCC BAA-1556): 8 µg/mL (≈ 4.76 µM)
[10]
  MIC MRSA: 8
[11]
  MBC P. aeruginosa (ATCC 27883): 16 µg/mL (≈ 9.51 µM)
[12]; MgCl2 (1 mM)
  MIC K. pneumoniae (ATCC BAA-1705): 32 µg/mL (≈ 19 µM)
[12]; NH4Cl (6 mM)
  MIC K. pneumoniae (ATCC BAA-1705): 32 µg/mL (≈ 19 µM)
[12]
  MIC K. pneumoniae: 64
[13]
  HC50: 265 µg/mL
[14]
  MBC E. coli (ATCC 25922): 32 µg/mL (≈ 19 µM)
[15]
  MIC P. aeruginosa: 16
[16]
  MIC E. coli: 32
